Source: PMC6009956, “Design, synthesis and biological activity of N^4-phenylsubstituted-7H-pyrrolo[2,3-d]pyrimidin-4-amines as dual inhibitors of aurora kinase A and epidermal growth factor receptor kinase” (Journal of Enzyme Inhibition and Medicinal Chemistry, 2017)
Read-outs that look alike come from different tables or passages of the source. Blank lines part the entries; values can stand above or below the compound they belong to.

Experiments:
aurora A kinase (AURKA) = molecular target: T1, aurora A kinase (AURKA) (Homo sapiens, UniProt O14965); assay: ADP-Glo kinase assay, Aurora A; assay type: biochemical
T1 construct: purchased BPS Bioscience (assay run externally by the vendor)
T1 sequence (O14965 1-403): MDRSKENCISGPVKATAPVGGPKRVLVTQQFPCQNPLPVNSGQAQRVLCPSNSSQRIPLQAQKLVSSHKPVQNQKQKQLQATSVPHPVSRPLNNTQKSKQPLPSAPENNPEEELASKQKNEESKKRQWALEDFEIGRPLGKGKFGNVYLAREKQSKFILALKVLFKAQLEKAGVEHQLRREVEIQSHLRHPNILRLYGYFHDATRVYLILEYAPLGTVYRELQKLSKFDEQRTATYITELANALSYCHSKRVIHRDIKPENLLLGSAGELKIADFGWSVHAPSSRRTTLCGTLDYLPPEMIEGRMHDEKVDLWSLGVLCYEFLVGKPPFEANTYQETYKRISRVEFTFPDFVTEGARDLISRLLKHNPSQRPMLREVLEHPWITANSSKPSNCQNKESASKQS

EGFR = EGFR (Homo sapiens, UniProt P00533); assay: ADP-Glo kinase assay, EGFR; assay type: biochemical; set-up: purchased BPS Bioscience (assay run externally by the vendor)
[1] = 10 µM ATP, triplicate, read-out: AURKA IC50 ± SD
[2] = 10 µM ATP/0.2 mg/ml Kemptide, read-out: Aurora A IC50 (dose-response curve, supplement)
[3] = 10 µM ATP, triplicate, read-out: EGFR IC50 ± SD
[4] = 10 µM ATP/0.2 mg/ml Poly-Glu-Tyr, read-out: EGFR IC50 (dose-response curve, supplement)

Chain of EGFR (P00533 25-1210): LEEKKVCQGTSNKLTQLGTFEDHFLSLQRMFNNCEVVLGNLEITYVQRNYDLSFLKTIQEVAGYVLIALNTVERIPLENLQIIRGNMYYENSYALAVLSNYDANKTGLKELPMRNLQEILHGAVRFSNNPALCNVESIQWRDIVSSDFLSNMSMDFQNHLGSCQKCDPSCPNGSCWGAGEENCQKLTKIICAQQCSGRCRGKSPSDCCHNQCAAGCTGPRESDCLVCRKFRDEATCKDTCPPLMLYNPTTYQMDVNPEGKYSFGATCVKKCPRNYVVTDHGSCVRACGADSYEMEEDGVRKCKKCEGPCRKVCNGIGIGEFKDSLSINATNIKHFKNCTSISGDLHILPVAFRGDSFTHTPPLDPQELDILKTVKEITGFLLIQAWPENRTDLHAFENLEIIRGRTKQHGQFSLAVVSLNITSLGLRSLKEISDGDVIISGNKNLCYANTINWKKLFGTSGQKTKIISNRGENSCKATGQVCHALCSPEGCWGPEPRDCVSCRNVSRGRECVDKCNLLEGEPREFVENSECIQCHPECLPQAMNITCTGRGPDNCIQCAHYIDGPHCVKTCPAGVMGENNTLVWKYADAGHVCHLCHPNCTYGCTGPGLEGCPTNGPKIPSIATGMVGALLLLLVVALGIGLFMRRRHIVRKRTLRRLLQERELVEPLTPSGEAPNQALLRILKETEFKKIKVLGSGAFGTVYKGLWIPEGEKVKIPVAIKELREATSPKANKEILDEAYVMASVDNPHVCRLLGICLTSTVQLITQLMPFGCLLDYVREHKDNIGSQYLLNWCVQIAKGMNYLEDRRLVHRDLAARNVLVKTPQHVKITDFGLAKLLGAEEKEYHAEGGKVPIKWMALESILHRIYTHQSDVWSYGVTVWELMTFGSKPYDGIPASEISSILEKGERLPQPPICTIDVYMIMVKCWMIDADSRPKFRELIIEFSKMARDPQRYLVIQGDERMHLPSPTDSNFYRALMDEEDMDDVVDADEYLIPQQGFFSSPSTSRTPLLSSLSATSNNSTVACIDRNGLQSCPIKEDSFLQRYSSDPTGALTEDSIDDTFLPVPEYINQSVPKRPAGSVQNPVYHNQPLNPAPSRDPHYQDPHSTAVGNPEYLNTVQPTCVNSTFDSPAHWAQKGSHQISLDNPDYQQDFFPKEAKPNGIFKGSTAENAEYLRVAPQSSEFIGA

IC50 (aurora A kinase (AURKA); [1]): 3.23 ± 0.31 µM
IC50 (aurora A kinase (AURKA); [2]): 3.3 µM
Aurora A % Activity Set1 (aurora A kinase (AURKA); Log[nM] 0): 95%
Aurora A % Activity Set2 (aurora A kinase (AURKA); Log[nM] 0): 102%
Aurora A % Activity Set3 (aurora A kinase (AURKA); Log[nM] 0): 95%
Aurora A % Activity Set1 (aurora A kinase (AURKA); Log[nM] 1.0): 100%
Aurora A % Activity Set2 (aurora A kinase (AURKA); Log[nM] 1.0): 103%
Aurora A % Activity Set3 (aurora A kinase (AURKA); Log[nM] 1.0): 99%
Aurora A % Activity Set1 (aurora A kinase (AURKA); Log[nM] 1.5): 100%
Aurora A % Activity Set2 (aurora A kinase (AURKA); Log[nM] 1.5): 103%
Aurora A % Activity Set3 (aurora A kinase (AURKA); Log[nM] 1.5): 103%
Aurora A % Activity Set1 (aurora A kinase (AURKA); Log[nM] 2.0): 100%
Aurora A % Activity Set2 (aurora A kinase (AURKA); Log[nM] 2.0): 106%
Aurora A % Activity Set3 (aurora A kinase (AURKA); Log[nM] 2.0): 105%
Aurora A % Activity Set1 (aurora A kinase (AURKA); Log[nM] 2.5): 95%
Aurora A % Activity Set2 (aurora A kinase (AURKA); Log[nM] 2.5): 97%
Aurora A % Activity Set3 (aurora A kinase (AURKA); Log[nM] 2.5): 95%
Aurora A % Activity Set1 (aurora A kinase (AURKA); Log[nM] 3.0): 95%
Aurora A % Activity Set2 (aurora A kinase (AURKA); Log[nM] 3.0): 103%
Aurora A % Activity Set3 (aurora A kinase (AURKA); Log[nM] 3.0): 93%
Aurora A % Activity Set1 (aurora A kinase (AURKA); Log[nM] 3.5): 40%
Aurora A % Activity Set2 (aurora A kinase (AURKA); Log[nM] 3.5): 40%
Aurora A % Activity Set3 (aurora A kinase (AURKA); Log[nM] 3.5): 37%
Aurora A % Activity Set1 (aurora A kinase (AURKA); Log[nM] 4.0): 16%
Aurora A % Activity Set2 (aurora A kinase (AURKA); Log[nM] 4.0): 16%
Aurora A % Activity Set3 (aurora A kinase (AURKA); Log[nM] 4.0): 15%
Aurora A % Activity Set1 (aurora A kinase (AURKA); Log[nM] 4.5): 31%
Aurora A % Activity Set2 (aurora A kinase (AURKA); Log[nM] 4.5): 30%
Aurora A % Activity Set3 (aurora A kinase (AURKA); Log[nM] 4.5): 30%
Aurora A % Activity Set1 (aurora A kinase (AURKA); Log[nM] 5.0): 17%
Aurora A % Activity Set2 (aurora A kinase (AURKA); Log[nM] 5.0): 15%
Aurora A % Activity Set3 (aurora A kinase (AURKA); Log[nM] 5.0): 16%
EGFR inhibition (in words) (EGFR): single-digit nanomolar EGFR inhibition
IC50 (EGFR; [3]): 0.00363 ± 0.00043 µM
IC50 (EGFR; [4]): 0.0036 µM
EGFR % Activity Set1 (EGFR; Log[nM] 0): 44%
EGFR % Activity Set2 (EGFR; Log[nM] 0): 50%
EGFR % Activity Set3 (EGFR; Log[nM] 0): 53%
EGFR % Activity Set1 (EGFR; Log[nM] 1.0): 18%
EGFR % Activity Set2 (EGFR; Log[nM] 1.0): 17%
EGFR % Activity Set3 (EGFR; Log[nM] 1.0): 20%
EGFR % Activity Set1 (EGFR; Log[nM] 1.5): 12%
EGFR % Activity Set2 (EGFR; Log[nM] 1.5): 13%
EGFR % Activity Set3 (EGFR; Log[nM] 1.5): 15%
EGFR % Activity Set1 (EGFR; Log[nM] 2.0): 4%
EGFR % Activity Set2 (EGFR; Log[nM] 2.0): 5%
EGFR % Activity Set3 (EGFR; Log[nM] 2.0): 4%
EGFR % Activity Set1 (EGFR; Log[nM] 2.5): 3%
EGFR % Activity Set2 (EGFR; Log[nM] 2.5): 3%
EGFR % Activity Set3 (EGFR; Log[nM] 2.5): 3%
EGFR % Activity Set1 (EGFR; Log[nM] 3.0): 1%
EGFR % Activity Set2 (EGFR; Log[nM] 3.0): 2%
EGFR % Activity Set3 (EGFR; Log[nM] 3.0): 2%
EGFR % Activity Set1 (EGFR; Log[nM] 3.5): 1%
EGFR % Activity Set2 (EGFR; Log[nM] 3.5): 1%
EGFR % Activity Set3 (EGFR; Log[nM] 3.5): 0%
EGFR % Activity Set1 (EGFR; Log[nM] 4.0): 0%
EGFR % Activity Set2 (EGFR; Log[nM] 4.0): 0%
EGFR % Activity Set3 (EGFR; Log[nM] 4.0): 0%
EGFR % Activity Set1 (EGFR; Log[nM] 4.5): 1%
EGFR % Activity Set2 (EGFR; Log[nM] 4.5): 1%
EGFR % Activity Set3 (EGFR; Log[nM] 4.5): 1%
EGFR % Activity Set1 (EGFR; Log[nM] 5.0): 0%
EGFR % Activity Set2 (EGFR; Log[nM] 5.0): 0%
EGFR % Activity Set3 (EGFR; Log[nM] 5.0): 0%
SMILES: Clc1ccc(Nc2ncnc3[nH]ccc23)cc1Br [Compound 7, N^4-(3-bromo, 4-chlorophenyl)-7H-pyrrolo[2,3-d]pyrimidine-4-amine]

IC50 (aurora A kinase (AURKA); [1]): 3.73 ± 0.12 µM
IC50 (aurora A kinase (AURKA); [2]): 3.7 µM
Aurora A % Activity Set1 (aurora A kinase (AURKA); Log[nM] 0): 98%
Aurora A % Activity Set2 (aurora A kinase (AURKA); Log[nM] 0): 87%
Aurora A % Activity Set3 (aurora A kinase (AURKA); Log[nM] 0): 96%
Aurora A % Activity Set1 (aurora A kinase (AURKA); Log[nM] 1.0): 97%
Aurora A % Activity Set2 (aurora A kinase (AURKA); Log[nM] 1.0): 94%
Aurora A % Activity Set3 (aurora A kinase (AURKA); Log[nM] 1.0): 94%
Aurora A % Activity Set1 (aurora A kinase (AURKA); Log[nM] 1.5): 100%
Aurora A % Activity Set2 (aurora A kinase (AURKA); Log[nM] 1.5): 95%
Aurora A % Activity Set3 (aurora A kinase (AURKA); Log[nM] 1.5): 95%
Aurora A % Activity Set1 (aurora A kinase (AURKA); Log[nM] 2.0): 102%
Aurora A % Activity Set2 (aurora A kinase (AURKA); Log[nM] 2.0): 97%
Aurora A % Activity Set3 (aurora A kinase (AURKA); Log[nM] 2.0): 101%
Aurora A % Activity Set1 (aurora A kinase (AURKA); Log[nM] 2.5): 100%
Aurora A % Activity Set2 (aurora A kinase (AURKA); Log[nM] 2.5): 93%
Aurora A % Activity Set3 (aurora A kinase (AURKA); Log[nM] 2.5): 98%
Aurora A % Activity Set1 (aurora A kinase (AURKA); Log[nM] 3.0): 82%
Aurora A % Activity Set2 (aurora A kinase (AURKA); Log[nM] 3.0): 83%
Aurora A % Activity Set3 (aurora A kinase (AURKA); Log[nM] 3.0): 82%
Aurora A % Activity Set1 (aurora A kinase (AURKA); Log[nM] 3.5): 60%
Aurora A % Activity Set2 (aurora A kinase (AURKA); Log[nM] 3.5): 55%
Aurora A % Activity Set3 (aurora A kinase (AURKA); Log[nM] 3.5): 53%
Aurora A % Activity Set1 (aurora A kinase (AURKA); Log[nM] 4.0): 20%
Aurora A % Activity Set2 (aurora A kinase (AURKA); Log[nM] 4.0): 19%
Aurora A % Activity Set3 (aurora A kinase (AURKA); Log[nM] 4.0): 20%
Aurora A % Activity Set1 (aurora A kinase (AURKA); Log[nM] 4.5): 9%
Aurora A % Activity Set2 (aurora A kinase (AURKA); Log[nM] 4.5): 9%
Aurora A % Activity Set3 (aurora A kinase (AURKA); Log[nM] 4.5): 9%
Aurora A % Activity Set1 (aurora A kinase (AURKA); Log[nM] 5.0): 10%
Aurora A % Activity Set2 (aurora A kinase (AURKA); Log[nM] 5.0): 10%
Aurora A % Activity Set3 (aurora A kinase (AURKA); Log[nM] 5.0): 9%
IC50 (EGFR; [3]): 0.125 ± 0.0164 µM
IC50 (EGFR; [4]): 0.125 µM
EGFR % Activity Set1 (EGFR; Log[nM] 0): 90%
EGFR % Activity Set2 (EGFR; Log[nM] 0): 96%
EGFR % Activity Set3 (EGFR; Log[nM] 0): 103%
EGFR % Activity Set1 (EGFR; Log[nM] 1.0): 97%
EGFR % Activity Set2 (EGFR; Log[nM] 1.0): 90%
EGFR % Activity Set3 (EGFR; Log[nM] 1.0): 97%
EGFR % Activity Set1 (EGFR; Log[nM] 1.5): 78%
EGFR % Activity Set2 (EGFR; Log[nM] 1.5): 82%
EGFR % Activity Set3 (EGFR; Log[nM] 1.5): 80%
EGFR % Activity Set1 (EGFR; Log[nM] 2.0): 53%
EGFR % Activity Set2 (EGFR; Log[nM] 2.0): 56%
EGFR % Activity Set3 (EGFR; Log[nM] 2.0): 51%
EGFR % Activity Set1 (EGFR; Log[nM] 2.5): 30%
EGFR % Activity Set2 (EGFR; Log[nM] 2.5): 29%
EGFR % Activity Set3 (EGFR; Log[nM] 2.5): 28%
EGFR % Activity Set1 (EGFR; Log[nM] 3.0): 14%
EGFR % Activity Set2 (EGFR; Log[nM] 3.0): 12%
EGFR % Activity Set3 (EGFR; Log[nM] 3.0): 12%
EGFR % Activity Set1 (EGFR; Log[nM] 3.5): 6%
EGFR % Activity Set2 (EGFR; Log[nM] 3.5): 5%
EGFR % Activity Set3 (EGFR; Log[nM] 3.5): 5%
EGFR % Activity Set1 (EGFR; Log[nM] 4.0): 2%
EGFR % Activity Set2 (EGFR; Log[nM] 4.0): 2%
EGFR % Activity Set3 (EGFR; Log[nM] 4.0): 2%
EGFR % Activity Set1 (EGFR; Log[nM] 4.5): 1%
EGFR % Activity Set2 (EGFR; Log[nM] 4.5): 1%
EGFR % Activity Set3 (EGFR; Log[nM] 4.5): 1%
EGFR % Activity Set1 (EGFR; Log[nM] 5.0): 1%
EGFR % Activity Set2 (EGFR; Log[nM] 5.0): 1%
EGFR % Activity Set3 (EGFR; Log[nM] 5.0): 1%
SMILES: Brc1ccc(Nc2ncnc3[nH]ccc23)cc1 [Compound 10, N^4-(4-bromophenyl)-7H-pyrrolo[2,3-d]pyrimidin-4-amine]
